The values below come from patent US20080261891A1, “COMPOSITIONS AND METHODS FOR USING SYRINGOPEPTIN 25A AND RHAMNOLIPIDS” (Utah State University, priority 2007, published 2008).

Holding throughout (format): cell-based
Test [1] relates to Enterococcus faecalis. The test can be described thus: Inhibition rate (IR), propidium iodide uptake. The method, then:
(§1) The antimicrobial action for each compound was initially determined by the rate of uptake of propidium iodide (Fluoropure grade, Molecular Probes, Inc., Eugene, Oreg.) as previously described (Haughland, R. P., 2002, Handbook of fluorescent probes and research chemicals, 9th ed. Molecular Probes, Inc., Eugene, Oreg.). Briefly, all cultures were grown overnight in their respective optimal growth medium and temperature from freezer vials (Table 1). Each culture was sub-cultured twice, harvested in mid-log phase, washed with saline, and adjusted to an appropriate concentration by measuring the optical density at 600 nm. PI, with an excitation wavelength of 535 and an emission wavelength of 617, was added to the culture suspension at a final concentration of 10 μM. Each organism was treated with 50 μg/mL SP 25A and 60 μg/mL of the RL mixture in a final volume of 2.2 mL. The increase in fluorescence was measured with a Shimadzu RF 1501 spectrophotofluorometer at 15 s intervals for a maximum period of 120 min. Saline was added in place of SP 25A or RLs as a negative control. All inhibition experiments were done in replicate.
(§2) The rate of antimicrobial action was expressed as the inhibition rate (“IR”). Curve fitting was done using OriginPro version 7.0 (Natick, Mass.). IR=((Log RFU/(Time))−C)/Time (when d Log RFU/dT>0). Where RFU=relative fluorescent units; and C=Y intercept.

Test [2] concerns Lactobacillus acidophilus. The test can be described thus: Inhibition rate (IR), propidium iodide uptake. The method, then:
as §1, §2

For another test, the system named is Enterobacter aerogenes. The test can be described thus: Inhibition rate (IR), propidium iodide uptake. The method, then: as §1, §2
For a further test, the system named is Brevibacterium linens. The test can be described thus: Inhibition rate (IR), propidium iodide uptake. The method, then: as §1, §2
Another test deals with Citrobacter fruendii. The test can be described thus: Inhibition rate (IR), propidium iodide uptake. The method, then: as §1, §2
Another test relates to Eschereschia coli K12. The test can be described thus: Inhibition rate (IR), propidium iodide uptake. The method, then: as §1, §2
Another test concerns Streptococcus mutans. The test can be described thus: Inhibition rate (IR), propidium iodide uptake. The method, then:
as §1, §2

The subject of the next test is Salmonella enteridis. The test can be described thus: Inhibition rate (IR), propidium iodide uptake. The method, then:
as §1, §2

The next test concerns Listeria innocua. The test can be described thus: Inhibition rate (IR), propidium iodide uptake. The method, then: as §1, §2
In test [3] the test system is Enterococcus faecalis. Conditions: Enterococcus faecalis (multiple drug resistant); 48 h. The method, then: (§3) In order to determine the antimicrobial efficacy of RLs and SPs they were tested against several bacterial strains, some with multiple drug resistance. The multiple drug resistant bacterial strains used were E. faecalis and S. aureus. […] A combination of RLs and SPs were tested against L. monocytogenes.
(§4) The MIC of the compounds for the organisms was determined by the microbroth dilution method, described hereafter. The microorganisms were prepared as described above and resuspended in their optimal growth media (Table 1) to ˜10^5 CFU/mL containing SP 25A at 2, 3, 4, 5, 6, 7, 8, 16, 32 and 50 μg/mL in a total volume of 550 μL. RL concentrations of 2, 3, 4, 5, 6, 7, 8, 16, 32 and 60 μg/mL in a total volume of 550 μL were tested in a 48-well plate (Corning, N.Y.). The plates were incubated at optimal growth conditions for the respective organism and monitored for an increase in OD600 after 48 h by a Perkin-Elmer (HTS 7000) plate reader (Downers Grove, Ill.). […] Negative controls (no inhibition of growth) were included using saline in the assay for each compound. The lowest concentration at which there was no increase in OD over 48 h was reported as the MIC. Each MIC was determined in replicate with three separate tests per replication. The results of the three tests were averaged for each replicate.

Test [4] concerns Staphylococcus aureus subsp. aureus. Conditions: Staphylococcus aureus subsp. aureus (multiple drug resistant); 48 h. The method, then: as §3, §4

The structures appear in SMILES notation. Where a SMILES comes first, the peptide text is derived from it. Bridges are numbered along the chain shown (N, C = ends). [ ]: non-standard residue; d: D form. The star is where a group is joined. ξ: configuration not given here. Decanoyl(3ξ-OH) = CCCCCCCC(O)CC(=O)*; Dab = NCC[CH](N)C(=O)O; Dhb = C/C=C(\N)C(=O)O

Consider `C/C=C(\NC(=O)C(C)NC(=O)C(C)NC(=O)C(CC(C)C)NC(=O)C(NC(=O)C(C)NC(=O)C(C)NC(=O)C(NC(=O)C1CCCN1C(=O)/C(=C/C)NC(=O)CC(O)CCCCCCC)C(C)C)C(C)C)C(=O)NC(C(=O)N/C(=C\C)C(=O)NC(C)C(=O)NC(C(=O)NC(C)C(=O)NC(C)C(=O)N/C(=C\C)C(=O)NC1C(=O)NC(CO)C(=O)NC(C)C(=O)NC(C(C)C)C(=O)NC(C)C(=O)NC(CCN)C(=O)NC(CCN)C(=O)NC(Cc2ccc(O)cc2)C(=O)OC1C)C(C)C)C(C)C` (centres unmarked) [SP 25A, syringopeptin 25A] ({Decanoyl(3ξ-OH)}-[Dhb]PVAAVLAA[Dhb]V[Dhb]AVAA[Dhb]TSAVA[Dab][Dab]Y; ester 18-C; configuration not given here), for which the “IR SP 25A (50 μg/mL)” value in the test on Enterococcus faecalis [1] is recorded as 0.001; in test [2], 0.003; with Enterobacter aerogenes, 0.000; in the test with Brevibacterium linens, 0.009; in the test on Citrobacter fruendii it was 0.000; in the test on Eschereschia coli K12, 0.000. Moreover, the “IR SP 25A (50 μg/mL)” value is reported as 0.003 with Streptococcus mutans, 0.000 in the test on Salmonella enteridis and 0.005 in the test with Listeria innocua. The MIC (with Enterococcus faecalis [3]; in test [4]) was 8 µg/mL in each case.

The term MIC denotes the least concentration at which growth counts as inhibited.
